Reference: patent US11524932B2, “Lipids for use in lipid nanoparticle formulations” (ACUITAS THERAPEUTICS, INC., priority 2017, dated 2022)

How the values were obtained:
[1] = test system: luciferase expression in the liver; test: Luciferase mRNA in vivo evaluation using lipid nanoparticle compositions (liver luciferase expression); set-up: species or system mice; conditions: LNP with FLuc mRNA, tail vein injection, liver measured 4 hours after administration; for Liver Luc @ 0.5 mg/kg (ng luc/g liver): 0.5 mg mRNA/kg
Description: A lipid of structure (I), DSPC, cholesterol and PEG-lipid were solubilized in ethanol at a molar ratio of 50:10:38.5:1.5 or 47.5:10:40.8:1.7. Lipid nanoparticles (LNP) were prepared at a total lipid to mRNA weight ratio of approximately 10:1 to 30:1. Briefly, the mRNA was diluted to 0.2 mg/mL in 10 to 50 mM citrate buffer, pH 4. Syringe pumps were used to mix the ethanolic lipid solution with the mRNA aqueous solution at a ratio of about 1:5 to 1:3 (vol/vol) with total flow rates above 15 mL/min. The ethanol was then removed and the external buffer replaced with PBS by dialysis. Finally, the lipid nanoparticles were filtered through a 0.2 μm pore sterile filter.
Studies were performed in 6-8 week old female C57BL/6 mice (Charles River) 8-10 week old CD-1 (Harlan) mice (Charles River) according to guidelines established by an institutional animal care committee (ACC) and the Canadian Council on Animal Care (CCAC). Varying doses of mRNA-lipid nanoparticle were systemically administered by tail vein injection and animals euthanized at a specific time point (e.g., 4 hours) post-administration. Liver and spleen were collected in pre-weighed tubes, weights determined, immediately snap frozen in liquid nitrogen and stored at −80° C. until processing for analysis.
For liver, approximately 50 mg was dissected for analyses in a 2 mL FastPrep tubes (MP Biomedicals, Solon Ohio). ¼″ ceramic sphere (MP Biomedicals) was added to each tube and 500 μL of Glo Lysis Buffer—GLB (Promega, Madison Wis.) equilibrated to room temperature was added to liver tissue. Liver tissues were homogenized with the FastPrep24 instrument (MP Biomedicals) at 2×6.0 m/s for 15 seconds. Homogenate was incubated at room temperature for 5 minutes prior to a 1:4 dilution in GLB and assessed using SteadyGlo Luciferase assay system (Promega). Specifically, 50 μL of diluted tissue homogenate was reacted with 50 μL of SteadyGlo substrate, shaken for 10 seconds followed by 5 minute incubation and then quantitated using a CentroXS^3 LB 960 luminometer (Berthold Technologies, Germany). The amount of protein assayed was determined by using the BCA protein assay kit (Pierce, Rockford, Ill.). Relative luminescence units (RLU) were then normalized to total μg protein assayed. To convert RLU to ng luciferase a standard curve was generated with QuantiLum Recombinant Luciferase (Promega). […]
Compounds of structure (I) were formulated using the following molar ratio: 47.5% cationic lipid/10% distearoylphosphatidylcholine (DSPC)/40.8% Cholesterol/1.7% PEG lipid (“PEG-DMA” 2-[2-(ω-methoxy (polyethyleneglycol2000)ethoxy]-N,N-ditetradecylacetamide). Relative activity was determined by measuring luciferase expression in the liver 4 hours following administration via tail vein injection as described in Example 1. […]

[2] = Determination of pKa of formulated lipids (TNS fluorescence assay in lipid nanoparticles); format: physicochemical; conditions: lipid formulated in LNP (lipid/DSPC/cholesterol/PEG-lipid); pH giving half-maximal TNS fluorescence
Source text: As described elsewhere, the pKa of formulated lipids is correlated with the effectiveness of LNPs for delivery of nucleic acids (see Jayaraman et al, Angewandte Chemie, International Edition (2012), 51(34), 8529-8533; Semple et al, Nature Biotechnology 28, 172-176 (2010)). In some embodiments, the preferred range of pKa is ˜5 to ˜7. […] Lipid nanoparticles comprising compound of structure (I)/DSPC/cholesterol/PEG-lipid (50/10/38.5/1.5 or 47.5:10:40.8:1.7 mol %) in PBS at a concentration of 0.4 mM total lipid were prepared using the in-line process as described in Example 1. TNS was prepared as a 100 μM stock solution in distilled water. Vesicles were diluted to 24 μM lipid in 2 mL of buffered solutions containing 10 mM HEPES, 10 mM MES, 10 mM ammonium acetate, and 130 mM NaCl, where the pH ranged from 2.5 to 11. An aliquot of the TNS solution was added to give a final concentration of 1 μM and following vortex mixing fluorescence intensity was measured at room temperature in a SLM Aminco Series 2 Luminescence Spectrophotometer using excitation and emission wavelengths of 321 nm and 445 nm. A sigmoidal best fit analysis was applied to the fluorescence data and the pKa was measured as the pH giving rise to half-maximal fluorescence intensity.

Structure (SMILES) | Liver Luc @ 0.5 mg/kg (ng luc/g liver) [1] | pKa [2] | Liver Luc (ng luc/g liver), dosed at 0.3 mg/kg ([1]; footnote *: dosed at 0.3 mg/kg)
CCCCCCCCC(CCCCCC)COC(=O)CCCCCC(CCCCCC(=O)OCC(CCCCCC)CCCCCCCC)NCCCCCC(=O)OCC(CCCC)CCCCCC (centres unmarked) [Compound 2] | 29 ± 4 ng luc/g liver | 5.76 | 
CCCCCCCCC(CCCCCC)COC(=O)CCCCCNCCN(CCCCCC(=O)OCC(CCCCCC)CCCCCCCC)CCCCCC(=O)OCC(CCCCCC)CCCCCCCC (centres unmarked) [Compound 3] | 33 ± 1 ng luc/g liver | 6.5 | 
CCCCCCCCC(CCCCCC)COC(=O)CCCCCC(CCCCCC(=O)OCC(CCCCCC)CCCCCCCC)NCCCCCC(=O)OCC(CC)CCCC (centres unmarked) [Compound 4] | 102 ± 42 ng luc/g liver | 6.11 | 
CCCCCCCCC(CCCCCC)COC(=O)CCCCCN(CCCCCC(=O)OCC(CCCCCC)CCCCCCCC)CCNCCCCCC(=O)OCC(CCCC)CCCCCC (centres unmarked) [Compound 1] |  | 6.39 | 1235 ± 345* ng luc/g liver
